According to ChEMBL document CHEMBL1201862, “PubChem BioAssay data set” (2004):
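The compound was tested at five concentrations on cells cultured in 96-well plates, with a 48-hour exposure period. GI50: concentration for 50% inhibition of growth.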 Calls of active or inactive are those of the source. Rule as the data show it: active = GI50 up to about 1.1 µM and inactive = higher.

Assays:
Assay in all cases: NCI anticancer screen, dose series, 48 h
CAKI-1 = test system: CAKI-1
DU-145 = test system: DU-145
EKVX = test system: EKVX
HCC 2998 = test system: HCC 2998
HCT-116 = test system: HCT-116
IGROV-1 = test system: IGROV-1
KM12 = test system: KM12
LOX IMVI = test system: LOX IMVI
MCF7 = test system: MCF7
MDA-MB-435 = test system: MDA-MB-435
NCI-H23 = test system: NCI-H23
PC-3 = test system: PC-3
SF-295 = test system: SF-295
SK-MEL-2 = test system: SK-MEL-2
SK-MEL-5 = test system: SK-MEL-5
SNB-19 = test system: SNB-19
SNB-75 = test system: SNB-75
U-251 = test system: U-251
SR = test system: SR

CC1=CC(=O)/C(=C/n2c(=S)[nH]c3cc(C)ccc32)C(=O)O1
GI50 (CAKI-1): > 100 µM (inactive) | GI50 (DU-145): > 100 µM (inactive) | GI50 (EKVX): > 100 µM (inactive) | GI50 (HCC 2998): > 100 µM (inactive) | GI50 (HCT-116): > 100 µM (inactive) | GI50 (IGROV-1): > 100 µM (inactive) | GI50 (KM12): > 100 µM (inactive) | GI50 (LOX IMVI): > 100 µM (inactive) | GI50 (MCF7): > 100 µM (inactive) | GI50 (MDA-MB-435): > 100 µM (inactive) | GI50 (NCI-H23): > 100 µM (inactive) | GI50 (PC-3): > 100 µM (inactive) | GI50 (SF-295): > 100 µM (inactive) | GI50 (SK-MEL-2): > 100 µM (inactive) | GI50 (SK-MEL-5): > 100 µM (inactive) | GI50 (SNB-19): > 100 µM (inactive) | GI50 (SNB-75): > 100 µM (inactive) | GI50 (U-251): > 100 µM (inactive)

CC(C)CC1[C@@H](OCc2ccccc2)COS(=O)N1Cc1ccccc1 (stereo not given in full)
GI50 (DU-145): 35.6 µM (inactive) | GI50 (EKVX): 38.8 µM (inactive) | GI50 (HCT-116): 28.2 µM (inactive) | GI50 (IGROV-1): 31 µM (inactive) | GI50 (KM12): 26.8 µM (inactive) | GI50 (LOX IMVI): 24.8 µM (inactive) | GI50 (MCF7): 41.9 µM (inactive) | GI50 (MDA-MB-435): 31.5 µM (inactive) | GI50 (NCI-H23): 39.6 µM (inactive) | GI50 (PC-3): 30.1 µM (inactive) | GI50 (SF-295): 46.2 µM (inactive) | GI50 (SK-MEL-2): 31 µM (inactive) | GI50 (SK-MEL-5): 33.5 µM (inactive) | GI50 (SNB-19): 41.7 µM (inactive) | GI50 (SNB-75): 21.5 µM (inactive) | GI50 (SR): 19.9 µM (inactive) | GI50 (U-251): 29.9 µM (inactive)

CCOC(=O)C1=CNC2=N[C@H]3CCCC[C@@H]3N2C1=O
GI50 (CAKI-1): > 100 µM (inactive) | GI50 (DU-145): > 100 µM (inactive) | GI50 (EKVX): > 100 µM (inactive) | GI50 (HCC 2998): > 100 µM (inactive) | GI50 (HCT-116): > 100 µM (inactive) | GI50 (IGROV-1): > 100 µM (inactive) | GI50 (KM12): > 100 µM (inactive) | GI50 (LOX IMVI): > 100 µM (inactive) | GI50 (MCF7): > 100 µM (inactive) | GI50 (MDA-MB-435): > 100 µM (inactive) | GI50 (NCI-H23): > 100 µM (inactive) | GI50 (PC-3): > 100 µM (inactive) | GI50 (SF-295): > 100 µM (inactive) | GI50 (SK-MEL-2): > 100 µM (inactive) | GI50 (SK-MEL-5): > 100 µM (inactive) | GI50 (SNB-19): > 100 µM (inactive) | GI50 (SNB-75): > 100 µM (inactive) | GI50 (U-251): > 100 µM (inactive)

Cc1cc(C)c2c(O)c(S(=O)(=O)c3ccc(Cl)cc3)c(=O)oc2c1
GI50 (CAKI-1): 72.6 µM (inactive) | GI50 (DU-145): 84.9 µM (inactive) | GI50 (EKVX): 22.7 µM (inactive) | GI50 (HCT-116): 53.5 µM (inactive) | GI50 (IGROV-1): 31.7 µM (inactive) | GI50 (KM12): 36.1 µM (inactive) | GI50 (MCF7): 50.6 µM (inactive) | GI50 (MDA-MB-435): 51.8 µM (inactive) | GI50 (NCI-H23): 84.1 µM (inactive) | GI50 (PC-3): 49 µM (inactive) | GI50 (SF-295): 36.5 µM (inactive) | GI50 (SK-MEL-2): 32.7 µM (inactive) | GI50 (SK-MEL-5): 60 µM (inactive) | GI50 (SNB-19): 52.1 µM (inactive) | GI50 (SNB-75): 45 µM (inactive) | GI50 (SR): 82.4 µM (inactive) | GI50 (U-251): 37.7 µM (inactive)

COc1cc2c(c(O)c1OC)C(O)C1CCC(=O)N1C2c1cccc2ccccc12 (stereo not given)
GI50 (CAKI-1): > 100 µM (inactive) | GI50 (DU-145): > 100 µM (inactive) | GI50 (EKVX): 67.8 µM (inactive) | GI50 (HCT-116): > 100 µM (inactive) | GI50 (IGROV-1): > 100 µM (inactive) | GI50 (KM12): 34.9 µM (inactive) | GI50 (MCF7): > 100 µM (inactive) | GI50 (MDA-MB-435): 51.4 µM (inactive) | GI50 (NCI-H23): > 100 µM (inactive) | GI50 (PC-3): 49.7 µM (inactive) | GI50 (SF-295): 99.8 µM (inactive) | GI50 (SK-MEL-2): > 100 µM (inactive) | GI50 (SK-MEL-5): > 100 µM (inactive) | GI50 (SNB-19): > 100 µM (inactive) | GI50 (SNB-75): 27 µM (inactive) | GI50 (SR): > 100 µM (inactive) | GI50 (U-251): > 100 µM (inactive)

CCN(CC)CCNc1nc(N)c(C#N)c(C#N)c1C#N
GI50 (CAKI-1): > 10 µM (inactive) | GI50 (DU-145): > 10 µM (inactive) | GI50 (EKVX): > 10 µM (inactive) | GI50 (HCC 2998): > 10 µM (inactive) | GI50 (HCT-116): > 10 µM (inactive) | GI50 (IGROV-1): > 10 µM (inactive) | GI50 (KM12): > 10 µM (inactive) | GI50 (LOX IMVI): > 10 µM (inactive) | GI50 (MCF7): > 10 µM (inactive) | GI50 (MDA-MB-435): > 10 µM (inactive) | GI50 (NCI-H23): > 10 µM (inactive) | GI50 (PC-3): > 10 µM (inactive) | GI50 (SF-295): > 10 µM (inactive) | GI50 (SK-MEL-5): > 10 µM (inactive) | GI50 (SNB-19): > 10 µM (inactive) | GI50 (SNB-75): > 10 µM (inactive) | GI50 (U-251): > 10 µM (inactive)

NC(=S)Nc1nc(=S)[nH]c2[nH]ccc12
GI50 (CAKI-1): > 100 µM (inactive) | GI50 (DU-145): > 100 µM (inactive) | GI50 (EKVX): 94.2 µM (inactive) | GI50 (HCT-116): 90.8 µM (inactive) | GI50 (IGROV-1): 88.5 µM (inactive) | GI50 (KM12): 26.2 µM (inactive) | GI50 (LOX IMVI): 27.7 µM (inactive) | GI50 (MCF7): 91.2 µM (inactive) | GI50 (MDA-MB-435): 30.9 µM (inactive) | GI50 (NCI-H23): > 100 µM (inactive) | GI50 (PC-3): 74.3 µM (inactive) | GI50 (SF-295): 65.5 µM (inactive) | GI50 (SK-MEL-2): > 100 µM (inactive) | GI50 (SK-MEL-5): 15.3 µM (inactive) | GI50 (SNB-19): > 100 µM (inactive) | GI50 (SNB-75): < 0.01 µM (active) | GI50 (SR): 29.4 µM (inactive) | GI50 (U-251): 93.1 µM (inactive)

CCOC(=O)C(=O)/C(=C/NC(=S)Nc1ccc(Cl)c(Cl)c1)C(=O)OCC
GI50 (CAKI-1): 64.7 µM (inactive) | GI50 (DU-145): > 100 µM (inactive) | GI50 (EKVX): 25.6 µM (inactive) | GI50 (HCT-116): 75 µM (inactive) | GI50 (IGROV-1): 85.9 µM (inactive) | GI50 (KM12): 86.5 µM (inactive) | GI50 (LOX IMVI): > 100 µM (inactive) | GI50 (MCF7): 62.2 µM (inactive) | GI50 (MDA-MB-435): 72.1 µM (inactive) | GI50 (NCI-H23): 70 µM (inactive) | GI50 (PC-3): 47 µM (inactive) | GI50 (SF-295): > 100 µM (inactive) | GI50 (SK-MEL-2): 69.2 µM (inactive) | GI50 (SK-MEL-5): 27.6 µM (inactive) | GI50 (SNB-19): > 100 µM (inactive) | GI50 (SNB-75): 31.2 µM (inactive) | GI50 (SR): 30.5 µM (inactive) | GI50 (U-251): > 100 µM (inactive)
